Consider 2 molecules from patent publication US20100099642A1, “TGF-BETA STIMULANT AND FURTHER AGENT TO REDUCE SIDE EFFECTS” (TCP Innovations Limited, priority 2007, published 2010).

One assay concerns TGF-beta activity. Kind of assay: TGF-beta activity estimated by smooth muscle cell proliferation (CPD with/without neutralising anti-TGF-beta antibody). Format: cell-based, human. To be noted: for effect of lower doses on CPD and hence TGF-beta activity: doses below 10 μM Tamoxifen / below 100 μM aspirin; for TGF-beta activity: ratio of CPD in the absence vs presence of neutralising anti-TGF-beta antibody: 0 μM T, 72 hrs. The protocol: The cells were cultured (37° C.; 5% CO2) in DMEM+20% foetal calf serum (FCS), and subcultured every 5 days at 1:2 dilution, using 0.02% trypsin/EDTA (Gibco).
For the experiments, the cells were subcultured into 12-well cluster plates at 1×10^5 cells/cm^2, and allowed to grow for 24 hrs. […] The cells were then incubated for either 24 hrs or 72 hrs depending on the experiment. All treatment conditions were established in triplicate.
Finally, TGF-beta activity was estimated by the direct effects on smooth muscle cell proliferation within the assay. For these experiments, the test agents were added, in triplicate, to cells both in the presence and absence of a neutralising antibody to TGF-beta (AB-100-NA; R&D Systems at 10 μg/ml, which is able to neutralise at least 25 ng/ml recombinant active TGF-beta1; R&D Systems). After 72 hrs incubation, the cells are washed and then released completely using 0.02% trypsin/EDTA (Gibco) at 37° C. for 10 mins, then counted manually using a haemocytometer. Importantly, the number of cells at 0 hrs must also be determined (using the same counting method, on a replicate set of three wells plated out specifically for the purpose). For each treatment condition, the TGF-beta-dependent inhibition of proliferation is expressed as the fold increase in the cumulative population doubling time in the absence of the neutralising antibody compared to the cumulative population doubling time in the presence of the neutralising antibody. […] Failure of either control led to the repeat of the experiment.

The next assay concerns apoE-deficient mice. Kind of assay: vascular lipid lesion formation at the aortic root (Oil Red O) in apoE-deficient mice. It is filed as in vivo, mouse. Conditions: 12 weeks in chow, TMX 1 mg/kg/day, Aspirin 30 mg/kg/day, mean ± SD, n = 8. An excerpt:
Adult male apoE-deficient mice, back-crossed onto a C57B16 background for at least five generations, were randomised into groups of eight animals at 12 weeks of age, such that each group had similar average body weight. […] Note that the mice receiving both compounds received food pellets into which a homogenous mixture of the ingredients had been compounded, and not a mixture of food pellets each containing one of the two active ingredients. The amount of food eaten and the body weight of each mouse was monitored daily for the first week, and once per week thereafter. After 12 weeks of treatment, the mice were sacrificed by CO2 asphyxiation, and heart & lung blocks were excised, embedded in Cryo-M-bed (Bright Instruments, UK) without fixation and snap frozen in liquid nitrogen.
Sections were then prepared from the aortic root according to the Paigen Strategy (a defined sequence of cutting sections which allow reproducible comparison between animals; see for example Grainger et al. (1995) Nature Med. 1:1067-72 and the references therein). 4 μm crysosections were cut using a motordriven cryotome (Bright Instruments) and collected onto poly-L-lysine coated glass microscope slides, then fixed in ice-cold acetone for 90 secs, allowed to air dry and stored at −20° C. until analysed.
The extent of vascular lipid lesion formation was assessed by Oil Red O staining, with a Fast Green counterstain, a standard histological procedure well known in the art. Briefly, five sections (selected according to the Paigen strategy) from each animal were passed through graded alcohol solutions, then stained in Oil Red O for 12 minutes, washed several times and then counterstained by dipping in Fast Green for 5-10 secs, and then dip washed in several changes of clean water. After air drying, an appropriate mountant was applied (simple glycerol-based moutants are most appropriate for this task), followed by a coverslip using acrylic varnish surrounding the coverslip to hold it in place. Slides were then analysed using a simple inverted microscope (no phase contrast; 10× objective; Olympus AX series), fitted with a digital camera to capture images of the entire aortic wall. The images were subsequently processed, blind to the treatment status of the animal, using Openlab image analysis software (Improvision, UK) running on an Apple Macintosh computer. […]
Mice were sacrificed and heart & lung blocks prepared and processed exactly as described in Example 2. […] The extent of lipid lesion formation was assessed by Oil Red O staining with Fast Green counterstain, exactly as in example 2.

`CC/C(=C(\c1ccccc1)c1ccc(OCCN(C)C)cc1)c1ccccc1` [Tamoxifen]: in the assay with TGF-beta activity, the “effect of lower doses on CPD and hence TGF-beta activity” value is “no statistically significant effect”. In the assay with apoE-deficient mice, the “Intimal lipid lesion area” value was 9,393 ± 2,221 μm2, the Lipid lesion area is reported as 10,794 ± 2,820 μm2 and the Total intimal area is on record as 64,428 ± 4,294 μm2.

With `CC(=O)Oc1ccccc1C(=O)O` [Aspirin, acetylsalicylic acid], the “TGF-beta activity: ratio of CPD in the absence vs presence of neutralising anti-TGF-beta antibody” value with TGF-beta activity (10 μM A) is 1.05 ± 0.09 fold; with TGF-beta activity (33 μM A) it was 1.13 ± 0.17 fold; in the assay with TGF-beta activity (100 μM A), 1.25 fold; in the assay on TGF-beta activity (100 μM A, listed as A) it was 1.25 ± 0.06 fold. In the assay with TGF-beta activity, the “effect of lower doses on CPD and hence TGF-beta activity” value is recorded as “no statistically significant effect”. Also, the Total intimal area in the assay with apoE-deficient mice is given as 65,209 ± 6,712 μm2.
